Experimental data taken from a melting point compilation (Tetko et al.; mined from patent text by program, amines drawn as free bases though some values may be those of a salt).

| SMILES | melting point |
| --- | --- |
| C/C(=C\c1ccncc1)c1ccc2c(c1)C(C)(C)CCC2(C)C | 84 to 85 °C |
| O=C(NCc1ccc2c(c1)OCO2)c1ccc(C(=O)NCc2ccc3c(c2)OCO3)s1 | 207 to 209 °C |
| CC(C)(C)c1ccc(OP2OCC3(CO2)COP(Oc2ccc(C(C)(C)C)cc2C(C)(C)C)OC3)c(C(C)(C)C)c1 (configuration not stated) | 174 to 177 °C |
| COCCOC/C(=C\S(=O)(=O)c1ccc(C)cc1)C(=O)OC(C)(C)C | 40 to 41 °C |
| Cc1cccc(N2CCN(CCc3c(C)nc4ccccn4c3=O)CC2)c1 | 95.5 to 96.5 °C |
| NCCc1ccc(C=Cc2ccccc2)cc1 | 141 to 156 °C |
| N#Cc1cccc(CCc2nnc(-c3ccc4nccn4c3)o2)c1 | 168 to 169 °C |
| COc1ccc(N2CCN(C(=O)CC3C=Cc4ccccc43)CC2)cc1 (configuration not stated) | 123 to 125 °C |
| C=C(Sc1ccc(C(C)(C)C)cc1)S(=O)(=O)c1ccc(Cl)cc1 | 74 to 79 °C |
| CC(C)n1c(C=O)c(-c2ccc(F)cc2)c(-c2ccccc2)c1C(=O)NCc1ccc(F)cc1 | 171 to 172 °C |
| CC1CC(=Cc2ccccc2)c2nc3cc(N)ccc3c(=O)n21 (configuration not stated) | 239 to 241 °C |
| COc1c(Cl)cc(C(=O)O)c2cccc(S(=O)(=O)N(C)C)c12 | 127 to 137 °C |
| CC(C)(C)C(=O)Nc1cc(Cl)c([N+](=O)[O-])cc1Cl | 142 to 145 °C |
| Cn1c(COc2ccc(CC3SC(=O)NC3=O)cc2)nc2ccc(OCc3ccccc3)nc21 (configuration not stated) | 210 to 211 °C |
| CC(C)(O)c1cccc(OCc2nc3cc(F)ccc3s2)c1 | 124 to 125 °C |
| CCOC(=O)N1CCCC(Nc2nc3ccccc3[nH]2)CC1 (configuration not stated) | 175 °C |
| COc1ccc(N2C(=O)Cc3ccccc32)cc1Cl | 165 to 167 °C |
| Cc1ccnc(CO)c1Br | 75 to 77 °C |
| Cc1cn(-c2cccc(C3=Nc4ccc(-c5ccc(F)cc5)cc4NC(=O)C3)c2)c(C)n1 | 188 °C |
| CCCc1cn(C)cc(-c2ccc(Cl)c(C(F)(F)F)c2)c1=O | 141 to 142 °C |
| CN1CCN(CCc2ccc(Nc3ncc4c(n3)-c3ccccc3C(c3ccc(Cl)c(Cl)c3)C4)cc2)CC1 (configuration not stated) | 119 to 121 °C |
| OCCCc1cn(-c2ccc(C(F)(F)F)cn2)nc1OCc1ccccc1 | 79 to 81 °C |
| Cc1cc(OC(=O)c2ccccc2)cc(C)c1O | 140 to 141 °C |
| CC1(C)OCC([N+](=O)[O-])CO1 | 60 to 61 °C |

| SMILES | melting point |
| --- | --- |
| COC(=O)Cc1cccc(OCc2nc(CCc3nc(-c4ccccc4)oc3C)no2)c1 | 76 to 77 °C |
| Cc1ccc(C(C)(C)C)c(O)c1-c1nc2cc(S(=O)(=O)C(F)(F)F)ccc2[nH]1 | 218 to 220 °C |
| CCC1(SC)CCC2C3CCC4=CC(=O)C=CC4(C)C3(F)C(O)CC21C (configuration not stated) | 252 to 254 °C |
| CC(ON1C(C)(C)CC2(CC1(C)C)OCC(C)(C)CO2)c1ccc(O)cc1 (configuration not stated) | 133 to 134 °C |
| CCCNC(=O)C(C#N)(CC)c1ccccc1 (configuration not stated) | 55 to 56 °C |
| Nc1ncc(C#Cc2ccccc2)c(NCCOCCO)n1 | 128 to 129 °C |
| ClCCN(CCCl)CCOc1ccc(Nc2c3ccccc3nc3c(OCCN(CCCl)CCCl)cccc23)cc1 | 105 to 106 °C |
| Cc1cc(CCCOc2c(C)cc(N3COC(CO)=N3)cc2C)on1 | 116 to 117 °C |
| C=CCOc1ccc2c(C)c(C(=O)C=Cc3cc(OC)c(OC)c(OC)c3)c(=O)oc2c1 | 138 to 140 °C |
| COc1ccc(N2CCOCC2)c2sc(C(=O)NCC(=O)c3sc4ccccc4c3C)nc12 | 180 °C |
| O=C(NC(=S)Nc1ccc2nsnc2c1Cl)c1ccccc1 | 220 to 222 °C |
| Oc1cccc(/C=C/c2nc(-c3ccccc3)cs2)c1 | 150 to 151 °C |
| CCOC(=O)c1cn(CCCO)c(=O)c2cc(Cl)ccc12 | 193 °C |
| CC(=O)c1cscc1O | 44 to 47 °C |
| CCCCCCc1cc2c(s1)-n1c(C)nnc1CN=C2c1ccccc1C | 135 to 137 °C |
| ClCc1cnoc1-c1cc(Cl)c(Cl)s1 | 60 to 61 °C |
| CC(C)(CC(=O)O)c1ccccc1SSc1ccccn1 | 122 to 125 °C |
| CCc1nc2c(Cl)cc(F)c([N+](=O)[O-])c2s1 | 70 to 73 °C |
| CCCN1CC(NC(=O)C(C)(C)C)CC2c3cccc4[nH]c(Cl)c(c34)CC21 (configuration not stated) | 146 to 147 °C |
| O=C(c1cc(C2=CC3CCC(C2)N3)ccn1)N(O)Cc1ccccc1 (configuration not stated) | 95 to 100 °C |
| Cc1cccc(C(=O)NCN2CCN(c3cccc(C#N)c3)CC2)c1 | 59 to 61 °C |
| Nc1cc(=O)n(Cc2ccc(Br)cc2)[nH]1 | 139 °C |
| Cc1ccc2c(c1)Oc1sc(C)cc1C(=O)N2 | 211 to 215 °C |
| NC(=S)NN=Cc1ncc([N+](=O)[O-])n1Cc1ccccc1 | 193 to 196 °C |

| SMILES | melting point |
| --- | --- |
| CCC1(C)Oc2cccc(O)c2O1 (configuration not stated) | 48 to 50 °C |
| Cc1cncn1CC#CCN1CCCC1=O | 194 to 197 °C |
| COC(=O)c1c2c(c3cc4c(cc3c1-c1ccc(OC)c(OC)c1)OCO4)OCOC2=O | 168 to 170 °C |
| O=S(=O)(c1ccccc1)n1c(C(O)c2ccoc2)cc2ccncc21 (configuration not stated) | 168 to 171 °C |
| CCNC(=S)NS(=O)(=O)c1cc2c(cc1OCC)OCCC2CNC(=O)N1CC(C)=C(CC)C1=O (configuration not stated) | 178 to 180 °C |
| CCCCCCCCCCc1ccc(CO)cc1 | 39 to 40 °C |
| CCOC(=O)Cc1ccc2c(c1)C(=O)C(NC(=O)OC)CC2 (configuration not stated) | 95 to 97 °C |
| Cc1cccc(C)c1C=NNC(=N)NCc1ccccc1 | 125 to 126 °C |
| Cc1cn(C2CC3OCC3O2)c(=O)[nH]c1=O (configuration not stated) | 188 to 190 °C |
| O=C(c1ccccc1)c1ccc(Nc2ncnc3ccc(-n4ccnc4)cc23)cc1Cl | 220 to 223 °C |
| CCCCNC(=O)c1ccc(S(=O)(=O)NC(=O)c2ccc(C(=O)NCC(=O)OC)nc2)cc1 | 215 to 217 °C |
| CCCc1cc(Cl)c2oc(C(=O)OCc3ccccc3)c(C)c2c1O | 119 to 120 °C |
| CCOc1ccc2c(c1)n(CCN(C(C)C)C(C)C)c(=O)n2S(=O)(=O)c1ccc(OC)cc1OC | 132 °C |
| CC(C)(C)OC(=O)N1CCC2(Cc3ccc(C#N)cc3)C(=O)N(c3cc(Cl)nc(Cl)c3)C(=O)N12 (configuration not stated) | 179 °C |
| C[Si](C)(C)c1cc(C(F)(F)F)ccc1OC1CCCCO1 (configuration not stated) | 43 to 46 °C |
| CCc1c2nc(-c3cc(S(C)(=O)=O)ccc3OCC(C)C)[nH]c(=O)c2nn1Cc1nccn1C | 253 to 254 °C |
| CC=CCn1c(C)c(C)c2cnnc(OCc3ccc(Cl)cc3F)c21 | 106 to 109 °C |
| CCN(CCCc1c[nH]c2ccc(Cl)cc12)C1COc2c(F)ccc(C(N)=O)c2C1 (configuration not stated) | 149 to 156 °C |
| CCC(C(O)c1ccc(Cl)cc1)n1ncn(-c2ccc(N3CCN(C(=O)c4ccccn4)CC3)nc2)c1=O (configuration not stated) | 210 °C |
| COc1ccc(C2(OC)OC2(C)C)cc1 (configuration not stated) | 41 to 43 °C |
| CS(=O)(=O)c1ccc(-c2cc(COCCO[N+](=O)[O-])nn2CC2CCCCC2)cc1 | 98 to 100 °C |
| CS(=O)(=O)c1ccc(-n2nc(C=O)cc2-c2ccccc2)cc1 | 133 to 136 °C |
| COc1ccc2ncc3c(=O)n(-c4ccccc4)oc3c2c1 | 140 °C |
| CC(=O)OCC1CC(n2c(=S)[nH]c3cc(Cl)c(Cl)cc32)C(OC(C)=O)C1OC(C)=O (configuration not stated) | 208 to 209 °C |
